# Calls of active or inactive are those of the source. How the calls were made is not given here.
# System: CCRIS mutagenicity, Ames/micronucleus/aberration tests
# Test: CCRIS mutagenicity studies
# [1] = Test System: AMES SALMONELLA TYPHIMURIUM, Strain/Indicator: TA100, Metabolic Activation: RAT, LIVER, S-9, AROCLOR 1254, Method: STANDARD PLATE
# [2] = Test System: AMES SALMONELLA TYPHIMURIUM, Strain/Indicator: TA98, Metabolic Activation: NONE, Method: PREINCUBATION
# [3] = Test System: AMES SALMONELLA TYPHIMURIUM, Strain/Indicator: TA100, Metabolic Activation: NONE, Method: PREINCUBATION
# [4] = Test System: AMES SALMONELLA TYPHIMURIUM, Strain/Indicator: TA98, Metabolic Activation: NONE, Method: STANDARD PLATE
# [5] = Test System: AMES SALMONELLA TYPHIMURIUM, Strain/Indicator: TA98, Metabolic Activation: RAT, LIVER, S-9, AROCLOR 1254, Method: STANDARD PLATE
# [6] = Test System: AMES SALMONELLA TYPHIMURIUM, Strain/Indicator: TA100, Metabolic Activation: NONE, Method: STANDARD PLATE
structure (smiles),measurement,setting,value
O=C1CCc2ccc3ccc4ccccc4c3c21,mutagenic call,[1],inactive; negative
CNP(=O)(N(C)C)N(C)C,mutagenic call,"Test System: AMES SALMONELLA TYPHIMURIUM, Strain/Indicator: TA100, Metabolic Activation: NONE, Method: SUSPENSION",inactive; negative
same,mutagenic call,"Test System: AMES SALMONELLA TYPHIMURIUM, Strain/Indicator: TA100, Metabolic Activation: RAT, LIVER, S-9, AROCLOR 1254, Method: SUSPENSION",active; positive
CCCCNC(=O)OCC#CI,mutagenic call,"End Point: Ames Salmonella typhimurium, Test System: TA98, Metabolic Activation: S-9, Method: Not specified",inactive; negative
same,mutagenic call,"End Point: Ames Salmonella typhimurium, Test System: TA100, Metabolic Activation: S-9, Method: Not specified",inactive; negative
same,mutagenic call,"End Point: Ames Salmonella typhimurium, Test System: TA1535, Metabolic Activation: S-9, Method: Not specified",inactive; negative
same,mutagenic call,"End Point: Ames Salmonella typhimurium, Test System: TA1537, Metabolic Activation: S-9, Method: Not specified",inactive; negative
same,mutagenic call,"End Point: Ames Salmonella typhimurium, Test System: TA1538, Metabolic Activation: S-9, Method: Not specified",inactive; negative
same,mutagenic call,"End Point: In vivo micronucleus, Test System: Bone marrow polychromatic erythrocytes, Species: Mouse, Strain/Sex: CD-1/Males and females, Route: Oral",inactive; negative
same,mutagenic call,"Test System: Ames Salmonella typhimurium, Strain/Indicator: TA98, Metabolic Activation: None, Method: Not specified",inactive; negative
same,mutagenic call,"Test System: Ames Salmonella typhimurium, Strain/Indicator: TA100, Metabolic Activation: None, Method: Not specified",inactive; negative
same,mutagenic call,"Test System: Ames Salmonella typhimurium, Strain/Indicator: TA1535, Metabolic Activation: None, Method: Not specified",inactive; negative
same,mutagenic call,"Test System: Ames Salmonella typhimurium, Strain/Indicator: TA1537, Metabolic Activation: None, Method: Not specified",inactive; negative
same,mutagenic call,"Test System: Ames Salmonella typhimurium, Strain/Indicator: TA1538, Metabolic Activation: None, Method: Not specified",inactive; negative
C=C(Cl)C=O,mutagenic call,"Test System: AMES SALMONELLA TYPHIMURIUM, Strain/Indicator: TA100, Metabolic Activation: NONE, Method: LIQUID INCUBATION",active; positive
same,mutagenic call,"Test System: AMES SALMONELLA TYPHIMURIUM, Strain/Indicator: TA100, Metabolic Activation: NONE, Method: PREINCUBATION, LIQUID INCUBATION",active; positive
same,mutagenic call,"Test System: AMES SALMONELLA TYPHIMURIUM, Strain/Indicator: TA1535, Metabolic Activation: NONE, Method: LIQUID INCUBATION",active; positive
same,mutagenic call,"Test System: AMES SALMONELLA TYPHIMURIUM, Strain/Indicator: TA1535, Metabolic Activation: NONE, Method: PREINCUBATION, LIQUID INCUBATION",active; positive
CCOC(=O)c1cc(Cc2ccc(N)c(C(=O)OCC)c2)ccc1N,mutagenic call,[2],inactive; negative
same,mutagenic call,"Test System: AMES SALMONELLA TYPHIMURIUM, Strain/Indicator: TA98, Metabolic Activation: RAT, LIVER, S-9, PCB, Method: PREINCUBATION",inactive; negative
same,mutagenic call,[3],inactive; negative
C=C(Br)CBr,mutagenic call,"Test System: AMES SALMONELLA TYPHIMURIUM, Strain/Indicator: TA100, Metabolic Activation: RAT, LIVER, MICROSOMES, PHENOBARBITAL, NADPH COFACTORS, Method: STANDARD PLATE",active; positive
same,mutagenic call,"Test System: AMES SALMONELLA TYPHIMURIUM, Strain/Indicator: TA100, Metabolic Activation: RAT, LIVER, MICROSOMES, PHENOBARBITAL, Method: STANDARD PLATE",active; positive
CCC(=O)Nc1ccc(Cl)c(Cl)c1,mutagenic call,"Test System: AMES SALMONELLA TYPHIMURIUM, Strain/Indicator: TA97, Metabolic Activation: NONE, Method: STANDARD PLATE",inactive; negative
same,mutagenic call,"Test System: AMES SALMONELLA TYPHIMURIUM, Strain/Indicator: TA97, Metabolic Activation: RAT, LIVER, S-9, AROCLOR 1254, Method: STANDARD PLATE",inactive; negative
same,mutagenic call,[4],inactive; negative
same,mutagenic call,[5],inactive; negative
same,mutagenic call,[6],inactive; negative
same,mutagenic call,[1],inactive; negative
same,mutagenic call,"Test System: AMES SALMONELLA TYPHIMURIUM, Strain/Indicator: TA104, Metabolic Activation: NONE, Method: STANDARD PLATE",inactive; negative
same,mutagenic call,"Test System: AMES SALMONELLA TYPHIMURIUM, Strain/Indicator: TA104, Metabolic Activation: RAT, LIVER, S-9, AROCLOR 1254, Method: STANDARD PLATE",inactive; negative
same,mutagenic call,"Test System: CHINESE HAMSTER OVARY, Strain/Indicator: CHO-K1-BH4 (HGPRT), Metabolic Activation: NONE",inactive; negative
same,mutagenic call,"Test System: CHINESE HAMSTER OVARY, Strain/Indicator: CHO-K1-BH4 (HGPRT), Metabolic Activation: RAT, LIVER, S-9, AROCLOR 1254",inactive; negative
O=C(OCC(COC(=O)c1ccccc1)(COC(=O)c1ccccc1)COC(=O)c1ccccc1)c1ccccc1,mutagenic call,"Test System: AMES SALMONELLA TYPHIMURIUM, Strain/Indicator: TA97, Metabolic Activation: HAMSTER, LIVER, S-9, AROCLOR 1254 (10 OR 30%), Method: PREINCUBATION",inactive; negative
same,mutagenic call,"Test System: AMES SALMONELLA TYPHIMURIUM, Strain/Indicator: TA97, Metabolic Activation: NONE, Method: PREINCUBATION",inactive; negative
same,mutagenic call,"Test System: AMES SALMONELLA TYPHIMURIUM, Strain/Indicator: TA97, Metabolic Activation: RAT, LIVER, S-9, AROCLOR 1254 (10 OR 30%), Method: PREINCUBATION",inactive; negative
same,mutagenic call,"Test System: AMES SALMONELLA TYPHIMURIUM, Strain/Indicator: TA98, Metabolic Activation: HAMSTER, LIVER, S-9, AROCLOR 1254 (10 OR 30%), Method: PREINCUBATION",inactive; negative
same,mutagenic call,[2],inactive; negative
same,mutagenic call,"Test System: AMES SALMONELLA TYPHIMURIUM, Strain/Indicator: TA98, Metabolic Activation: RAT, LIVER, S-9, AROCLOR 1254 (10 OR 30%), Method: PREINCUBATION",inactive; negative
same,mutagenic call,"Test System: AMES SALMONELLA TYPHIMURIUM, Strain/Indicator: TA100, Metabolic Activation: HAMSTER, LIVER, S-9, AROCLOR 1254 (10 OR 30%), Method: PREINCUBATION",inactive; negative
same,mutagenic call,[3],inactive; negative
same,mutagenic call,"Test System: AMES SALMONELLA TYPHIMURIUM, Strain/Indicator: TA100, Metabolic Activation: RAT, LIVER, S-9, AROCLOR 1254 (10 OR 30%), Method: PREINCUBATION",inactive; negative
same,mutagenic call,"Test System: AMES SALMONELLA TYPHIMURIUM, Strain/Indicator: TA1535, Metabolic Activation: HAMSTER, LIVER, S-9, AROCLOR 1254 (10 OR 30%), Method: PREINCUBATION",inactive; negative
same,mutagenic call,"Test System: AMES SALMONELLA TYPHIMURIUM, Strain/Indicator: TA1535, Metabolic Activation: NONE, Method: PREINCUBATION",inactive; negative
same,mutagenic call,"Test System: AMES SALMONELLA TYPHIMURIUM, Strain/Indicator: TA1535, Metabolic Activation: RAT, LIVER, S-9, AROCLOR 1254 (10 OR 30%), Method: PREINCUBATION",inactive; negative
same,mutagenic call,"Test System: AMES SALMONELLA TYPHIMURIUM, Strain/Indicator: TA1537, Metabolic Activation: HAMSTER, LIVER, S-9, AROCLOR 1254 (30%), Method: PREINCUBATION",inactive; negative
same,mutagenic call,"Test System: AMES SALMONELLA TYPHIMURIUM, Strain/Indicator: TA1537, Metabolic Activation: NONE, Method: PREINCUBATION",inactive; negative
same,mutagenic call,"Test System: AMES SALMONELLA TYPHIMURIUM, Strain/Indicator: TA1537, Metabolic Activation: RAT, LIVER, S-9, AROCLOR 1254 (30%), Method: PREINCUBATION",inactive; negative
CCC(=O)Nc1snc2ccc(C)cc12,mutagenic call,[6],inactive; negative
same,mutagenic call,"Test System: AMES SALMONELLA TYPHIMURIUM, Strain/Indicator: TA100, Metabolic Activation: S-9, Method: STANDARD PLATE",inactive; negative
same,mutagenic call,"Test System: AMES SALMONELLA TYPHIMURIUM, Strain/Indicator: TA1537, Metabolic Activation: NONE, Method: STANDARD PLATE",inactive; negative
same,mutagenic call,"Test System: AMES SALMONELLA TYPHIMURIUM, Strain/Indicator: TA1537, Metabolic Activation: S-9, Method: STANDARD PLATE",inactive; negative
CC(=O)N(OC(=O)c1ccccc1)c1ccc2c(c1)Cc1ccccc1-2,mutagenic call,[4],active; positive
same,mutagenic call,[5],active; positive
COc1ccc(CON(OC(C)=O)C(=O)c2ccccc2)cc1,mutagenic call,[6],active; positive
same,mutagenic call,"Test System: AMES SALMONELLA TYPHIMURIUM, Strain/Indicator: TA100, Metabolic Activation: RAT, S-9, AROCLOR, Method: STANDARD PLATE",active; positive

# Reference: PubChem BioAssay AID1259407 (Chemical Carcinogenesis Research Information System (CCRIS), 2018)
